Laboratory results published in ChEMBL document CHEMBL5154675, “Design, Synthesis, and Biological Evaluation of 1-(Indolizin-3-yl)ethan-1-ones as CBP Bromodomain Inhibitors for the Treatment of Prostate Cancer” (J Med Chem, 2022).

Tests used:
[1] = molecular target: T1, CREB-binding protein (Homo sapiens, UniProt Q92793); settings: dose 200.0 µM, time 30.0 min
Target sequence in this assay (Q92793 2-2442 limits assumed): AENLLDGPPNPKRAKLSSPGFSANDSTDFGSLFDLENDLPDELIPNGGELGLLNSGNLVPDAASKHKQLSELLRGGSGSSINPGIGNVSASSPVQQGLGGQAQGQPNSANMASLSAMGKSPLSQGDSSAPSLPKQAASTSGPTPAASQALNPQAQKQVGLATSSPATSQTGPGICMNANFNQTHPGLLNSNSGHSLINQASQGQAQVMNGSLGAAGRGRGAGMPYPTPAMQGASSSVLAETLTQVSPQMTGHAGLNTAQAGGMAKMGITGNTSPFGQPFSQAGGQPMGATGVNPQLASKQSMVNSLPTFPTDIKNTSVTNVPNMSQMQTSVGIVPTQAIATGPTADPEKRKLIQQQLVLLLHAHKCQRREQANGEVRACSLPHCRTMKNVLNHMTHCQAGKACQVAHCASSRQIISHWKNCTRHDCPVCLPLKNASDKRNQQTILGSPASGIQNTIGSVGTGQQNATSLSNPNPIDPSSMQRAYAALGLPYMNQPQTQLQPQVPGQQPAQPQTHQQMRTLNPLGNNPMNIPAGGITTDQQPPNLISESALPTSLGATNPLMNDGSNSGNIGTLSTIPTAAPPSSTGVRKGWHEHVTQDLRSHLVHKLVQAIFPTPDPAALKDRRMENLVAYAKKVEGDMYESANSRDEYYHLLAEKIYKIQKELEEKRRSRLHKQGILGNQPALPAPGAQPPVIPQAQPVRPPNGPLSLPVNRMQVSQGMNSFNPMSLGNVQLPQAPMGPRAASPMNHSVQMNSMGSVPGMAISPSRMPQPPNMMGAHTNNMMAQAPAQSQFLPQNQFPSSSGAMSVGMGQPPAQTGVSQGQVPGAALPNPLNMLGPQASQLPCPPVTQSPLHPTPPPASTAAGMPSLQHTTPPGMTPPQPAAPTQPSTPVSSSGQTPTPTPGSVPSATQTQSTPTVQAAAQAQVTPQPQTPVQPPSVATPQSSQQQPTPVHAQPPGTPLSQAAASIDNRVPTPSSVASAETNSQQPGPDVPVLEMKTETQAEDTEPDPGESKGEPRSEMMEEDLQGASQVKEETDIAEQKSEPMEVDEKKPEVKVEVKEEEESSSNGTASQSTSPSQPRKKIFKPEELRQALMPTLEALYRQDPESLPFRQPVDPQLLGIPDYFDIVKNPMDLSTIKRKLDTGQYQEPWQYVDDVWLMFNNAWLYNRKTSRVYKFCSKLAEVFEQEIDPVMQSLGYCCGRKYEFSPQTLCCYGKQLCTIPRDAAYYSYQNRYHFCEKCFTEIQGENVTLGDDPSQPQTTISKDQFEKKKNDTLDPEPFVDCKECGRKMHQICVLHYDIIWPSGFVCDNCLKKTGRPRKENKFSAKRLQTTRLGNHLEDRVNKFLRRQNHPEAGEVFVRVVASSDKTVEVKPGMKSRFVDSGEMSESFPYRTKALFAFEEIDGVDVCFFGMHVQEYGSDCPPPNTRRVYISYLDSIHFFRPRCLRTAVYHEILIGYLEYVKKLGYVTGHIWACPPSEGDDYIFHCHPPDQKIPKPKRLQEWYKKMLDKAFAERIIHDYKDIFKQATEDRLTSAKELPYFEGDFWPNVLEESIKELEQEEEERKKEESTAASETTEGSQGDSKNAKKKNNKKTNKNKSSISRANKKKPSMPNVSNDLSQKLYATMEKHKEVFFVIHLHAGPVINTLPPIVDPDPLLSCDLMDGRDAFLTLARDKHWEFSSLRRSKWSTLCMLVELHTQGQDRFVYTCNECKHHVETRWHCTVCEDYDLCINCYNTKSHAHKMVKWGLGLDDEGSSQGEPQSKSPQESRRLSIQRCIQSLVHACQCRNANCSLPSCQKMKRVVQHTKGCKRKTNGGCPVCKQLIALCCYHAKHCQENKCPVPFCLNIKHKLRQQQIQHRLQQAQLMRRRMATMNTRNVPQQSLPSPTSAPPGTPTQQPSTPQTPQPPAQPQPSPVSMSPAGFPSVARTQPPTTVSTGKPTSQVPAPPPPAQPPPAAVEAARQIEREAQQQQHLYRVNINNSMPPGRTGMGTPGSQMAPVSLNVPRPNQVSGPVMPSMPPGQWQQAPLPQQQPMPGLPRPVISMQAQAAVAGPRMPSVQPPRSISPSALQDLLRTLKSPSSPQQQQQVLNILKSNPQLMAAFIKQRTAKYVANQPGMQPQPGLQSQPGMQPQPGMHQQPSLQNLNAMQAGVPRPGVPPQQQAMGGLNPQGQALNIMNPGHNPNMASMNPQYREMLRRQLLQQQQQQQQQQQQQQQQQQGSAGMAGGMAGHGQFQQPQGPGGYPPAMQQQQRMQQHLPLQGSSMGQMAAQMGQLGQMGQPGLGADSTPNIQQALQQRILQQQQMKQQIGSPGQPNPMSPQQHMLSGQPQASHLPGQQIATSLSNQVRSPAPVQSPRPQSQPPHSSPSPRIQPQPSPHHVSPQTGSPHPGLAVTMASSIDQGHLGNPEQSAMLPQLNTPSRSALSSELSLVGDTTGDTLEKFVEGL

[2] = tested on: LNCaP C4-2B; experiment: Antiproliferative activity against human LNCaP C4-2B cells assessed as inhibition of cell growth by Celltiter-Glo assay; type: functional, cell-based
[3] = molecular target: T1, CREB-binding protein; experiment: Inhibition of His6-tagged human CBP bromodomain (1081 to 1197 residues) expressed in Escherichia coli BL21 (DE3) incubated for 30 mins by HTRF assay
Target sequence in this assay (Q92793 whole entry): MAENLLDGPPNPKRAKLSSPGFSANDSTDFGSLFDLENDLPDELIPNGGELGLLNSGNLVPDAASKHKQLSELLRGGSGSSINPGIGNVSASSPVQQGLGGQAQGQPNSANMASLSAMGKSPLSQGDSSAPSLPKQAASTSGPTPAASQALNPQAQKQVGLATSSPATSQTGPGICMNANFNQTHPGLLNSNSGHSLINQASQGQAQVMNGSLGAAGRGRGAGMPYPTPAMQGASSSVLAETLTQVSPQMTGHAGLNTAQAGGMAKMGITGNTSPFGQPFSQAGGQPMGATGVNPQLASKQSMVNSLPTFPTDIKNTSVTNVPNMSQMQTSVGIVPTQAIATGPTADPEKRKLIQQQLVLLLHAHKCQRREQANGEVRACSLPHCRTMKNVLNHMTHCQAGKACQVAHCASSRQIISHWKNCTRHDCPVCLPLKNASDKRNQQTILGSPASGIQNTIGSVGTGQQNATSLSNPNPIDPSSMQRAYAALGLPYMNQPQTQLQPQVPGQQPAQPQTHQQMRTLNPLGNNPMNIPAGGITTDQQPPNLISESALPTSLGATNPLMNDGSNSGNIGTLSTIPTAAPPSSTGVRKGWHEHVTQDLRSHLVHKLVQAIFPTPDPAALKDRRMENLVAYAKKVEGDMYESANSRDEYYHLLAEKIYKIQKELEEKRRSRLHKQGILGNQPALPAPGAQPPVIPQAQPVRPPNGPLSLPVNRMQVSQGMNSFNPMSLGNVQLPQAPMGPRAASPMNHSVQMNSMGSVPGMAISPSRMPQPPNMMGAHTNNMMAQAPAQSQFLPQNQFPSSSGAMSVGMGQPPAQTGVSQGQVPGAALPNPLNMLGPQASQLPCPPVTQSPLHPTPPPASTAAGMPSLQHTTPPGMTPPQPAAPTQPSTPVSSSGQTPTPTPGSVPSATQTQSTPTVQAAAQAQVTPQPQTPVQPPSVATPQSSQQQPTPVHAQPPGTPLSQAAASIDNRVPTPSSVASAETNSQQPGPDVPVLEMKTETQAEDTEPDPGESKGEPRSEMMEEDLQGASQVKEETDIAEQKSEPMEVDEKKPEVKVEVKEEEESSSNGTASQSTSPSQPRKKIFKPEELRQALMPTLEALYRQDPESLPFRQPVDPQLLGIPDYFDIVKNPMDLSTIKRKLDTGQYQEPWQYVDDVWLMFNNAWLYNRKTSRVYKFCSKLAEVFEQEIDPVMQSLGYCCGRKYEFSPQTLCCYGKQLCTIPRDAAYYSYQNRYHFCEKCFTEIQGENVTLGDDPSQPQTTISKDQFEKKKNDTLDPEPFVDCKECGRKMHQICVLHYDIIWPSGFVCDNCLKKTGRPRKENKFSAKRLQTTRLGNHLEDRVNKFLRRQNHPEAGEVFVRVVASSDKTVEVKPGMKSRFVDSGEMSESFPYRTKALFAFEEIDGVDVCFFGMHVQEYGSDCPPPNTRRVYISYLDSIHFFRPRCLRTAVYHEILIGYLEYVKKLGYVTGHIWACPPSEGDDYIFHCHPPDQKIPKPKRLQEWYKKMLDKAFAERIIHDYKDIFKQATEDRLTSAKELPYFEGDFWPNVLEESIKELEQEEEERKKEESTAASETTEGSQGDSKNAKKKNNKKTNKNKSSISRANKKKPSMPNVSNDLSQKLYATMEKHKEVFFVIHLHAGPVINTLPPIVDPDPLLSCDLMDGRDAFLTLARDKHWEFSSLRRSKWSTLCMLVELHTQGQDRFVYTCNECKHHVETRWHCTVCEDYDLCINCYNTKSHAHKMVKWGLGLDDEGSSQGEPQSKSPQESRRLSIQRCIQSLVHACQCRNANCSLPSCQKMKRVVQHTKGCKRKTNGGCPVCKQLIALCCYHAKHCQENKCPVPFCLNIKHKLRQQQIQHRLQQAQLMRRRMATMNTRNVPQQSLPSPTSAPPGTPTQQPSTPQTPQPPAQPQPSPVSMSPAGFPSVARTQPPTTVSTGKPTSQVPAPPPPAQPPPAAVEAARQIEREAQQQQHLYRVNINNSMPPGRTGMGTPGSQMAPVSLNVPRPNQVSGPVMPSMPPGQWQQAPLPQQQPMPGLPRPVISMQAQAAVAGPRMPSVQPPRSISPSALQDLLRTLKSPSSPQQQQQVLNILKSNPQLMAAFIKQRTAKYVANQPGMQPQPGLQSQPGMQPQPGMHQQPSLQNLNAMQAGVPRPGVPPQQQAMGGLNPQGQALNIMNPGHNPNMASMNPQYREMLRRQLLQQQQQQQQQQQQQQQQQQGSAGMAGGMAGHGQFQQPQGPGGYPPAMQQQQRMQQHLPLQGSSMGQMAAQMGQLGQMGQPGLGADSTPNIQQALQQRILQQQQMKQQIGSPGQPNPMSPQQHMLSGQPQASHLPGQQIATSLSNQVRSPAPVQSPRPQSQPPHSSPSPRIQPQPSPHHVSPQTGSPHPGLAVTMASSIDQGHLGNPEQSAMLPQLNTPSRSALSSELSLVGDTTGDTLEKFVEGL

[4] = in vitro; settings: rat, liver microsomes
Description: Hepatic extraction ratio in rat liver microsomes at 1 uM incubated for 45 mins in presence of NADPH by LC-MS/MS analysis

[5] = Metabolic stability in rat liver microsomes assessed as parent compound remaining at 1 uM incubated for 45 mins in presence of NADPH by LC-MS/MS analysis; type: ADME, Microsome; settings: read-out: Stability
[6] = Half life in rat liver microsomes at 1 uM incubated for 45 mins in presence of NADPH by LC-MS/MS analysis; type: ADME, Microsome
[7] = Intrinsic clearance in rat liver microsomes at 1 uM incubated for 45 mins in presence of NADPH by LC-MS/MS analysis; type: ADME, Microsome; settings: read-out: CLH
[8] = Hepatic clearance in rat liver microsomes at 1 uM incubated for 45 mins in presence of NADPH by LC-MS/MS analysis; type: ADME, Microsome
[9] = molecular target: T1, CREB-binding protein; experiment: Binding affinity to His6-tagged human CBP bromodomain (1081 to 1197 residues) expressed in Escherichia coli BL21 (DE3) assessed as dissociation constant by ITC analysis
Target sequence in this assay (Q92793 whole entry): as above

[10] = Intrinsic clearance in human liver microsomes at 1 uM incubated for 45 mins in presence of NADPH by LC-MS/MS analysis; type: ADME, Microsome; settings: read-out: CLH
[11] = Hepatic clearance in human liver microsomes at 1 uM incubated for 45 mins in presence of NADPH by LC-MS/MS analysis; type: ADME, Microsome; settings: read-out: CLH
[12] = Hepatic extraction ratio in human liver microsomes at 1 uM incubated for 45 mins in presence of NADPH by LC-MS/MS analysis; type: ADME, Microsome; settings: read-out: ERH
[13] = Half life in human liver microsomes at 1 uM incubated for 45 mins in presence of NADPH by LC-MS/MS analysis; type: ADME, Microsome
[14] = Metabolic stability in human liver microsomes assessed as parent compound remaining at 1 uM incubated for 45 mins in presence of NADPH by LC-MS/MS analysis; type: ADME, Microsome; settings: read-out: Stability
[15] = Apparent permeability across basolateral to apical side in human Caco-2 cells assessed as drug recovery at 10 uM measured after 2 hrs by LC-MS/MS analysis; type: ADME, cell-based; settings: read-out: Drug recovery
[16] = Apparent permeability across apical to basolateral side in human Caco-2 cells assessed as drug recovery at 10 uM measured after 2 hrs by LC-MS/MS analysis; type: ADME, cell-based; settings: read-out: Drug recovery
[17] = molecular target: T2, Bromodomain-containing protein 4 (Homo sapiens, UniProt O60885); settings: dose 200.0 µM, time 30.0 min
[18] = molecular target: T3, Bromodomain-containing protein 3 (Homo sapiens, UniProt Q15059); settings: dose 200.0 µM, time 30.0 min
[19] = molecular target: SWI/SNF-related matrix-associated actin-dependent regulator of chromatin subfamily A member 2 (Homo sapiens) (UniProt P51531); settings: dose 200.0 µM, time 30.0 min
[20] = molecular target: T4, Bromodomain-containing protein 2 (Homo sapiens, UniProt P25440); settings: dose 200.0 µM, time 30.0 min
[21] = molecular target: Chromatin remodeling regulator CECR2 (Homo sapiens) (UniProt Q9BXF3); settings: dose 200.0 µM, time 30.0 min
[22] = tested on: CWR22R; experiment: Antiproliferative activity against human 22Rv1 cells assessed as cell growth inhibition by Celltiter-Glo assay; type: functional, cell-based
[23] = molecular target: Bromodomain adjacent to zinc finger domain protein 2B (Homo sapiens) (UniProt Q9UIF8); settings: dose 200.0 µM, time 30.0 min
[24] = molecular target: T5, Bromodomain testis-specific protein (Homo sapiens, UniProt Q58F21); settings: dose 200.0 µM, time 30.0 min
[25] = molecular target: T4, Bromodomain-containing protein 2; settings: dose 200.0 µM, time 30.0 min; remark: listed apart in the source
[26] = tested on: LNCaP; experiment: Antiproliferative activity against human LNCaP cells assessed as cell growth inhibition by Celltiter-Glo assay; type: functional, cell-based
[27] = molecular target: PH-interacting protein (Homo sapiens) (UniProt Q8WWQ0); settings: dose 200.0 µM, time 30.0 min
[28] = molecular target: T5, Bromodomain testis-specific protein; settings: dose 200.0 µM, time 30.0 min; remark: listed apart in the source
[29] = molecular target: Histone acetyltransferase KAT2B (Homo sapiens) (UniProt Q92831); settings: dose 200.0 µM, time 30.0 min
[30] = molecular target: T6, Bromodomain-containing protein 9 (Homo sapiens) (UniProt Q9H8M2); settings: dose 200.0 µM, time 30.0 min
T6 sequence (whole entry): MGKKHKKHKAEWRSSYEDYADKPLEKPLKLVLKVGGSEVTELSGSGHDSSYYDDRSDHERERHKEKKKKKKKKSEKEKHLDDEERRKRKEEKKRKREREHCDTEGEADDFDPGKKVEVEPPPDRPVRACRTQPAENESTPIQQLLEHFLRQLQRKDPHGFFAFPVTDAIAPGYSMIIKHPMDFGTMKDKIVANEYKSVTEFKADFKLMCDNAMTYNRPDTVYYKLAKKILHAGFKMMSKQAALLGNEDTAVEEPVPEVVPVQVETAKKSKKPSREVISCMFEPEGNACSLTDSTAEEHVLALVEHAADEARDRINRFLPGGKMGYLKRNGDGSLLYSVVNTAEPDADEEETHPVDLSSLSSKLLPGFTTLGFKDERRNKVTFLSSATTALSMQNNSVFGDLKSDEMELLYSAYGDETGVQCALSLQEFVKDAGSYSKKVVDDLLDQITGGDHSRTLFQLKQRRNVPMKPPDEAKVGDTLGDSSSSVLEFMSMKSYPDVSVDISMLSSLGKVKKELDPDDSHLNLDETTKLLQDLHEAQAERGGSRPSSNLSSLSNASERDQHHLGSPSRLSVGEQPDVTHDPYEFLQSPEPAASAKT

[31] = molecular target: T2, Bromodomain-containing protein 4; settings: dose 200.0 µM, time 30.0 min; remark: listed apart in the source
[32] = molecular target: Histone acetyltransferase p300 (Homo sapiens) (UniProt Q09472); settings: dose 200.0 µM, time 30.0 min
[33] = molecular target: T3, Bromodomain-containing protein 3; settings: dose 200.0 µM, time 30.0 min; remark: listed apart in the source
[34] = Apparent permeability across apical to basolateral side in human Caco-2 cells at 10 uM measured after 2 hrs by LC-MS/MS analysis; type: ADME, cell-based
[35] = Apparent permeability across basolateral to apical side in human Caco-2 cells at 10 uM measured after 2 hrs by LC-MS/MS analysis; type: ADME, cell-based

SMILES	ΔTm [1] [°C]	IC50 [2] [nM]	IC50 [3] [nM]	other results
COC(=O)c1cc(NC(=O)c2cc(C(C)=O)n3ccc(OC)cc23)c(F)c(-c2cnn(C)c2)c1	3.3	> 50000		
CC(=O)c1cc(C(=O)Nc2cc(CO)cc(-c3cnn(C)c3)c2F)c2cc(C)ccn12	6.3	> 50000	14	
CNc1ccn2c(C(C)=O)cc(C(=O)Nc3cc(CO)cc(-c4cnn(C)c4)c3F)c2c1	9.9	> 50000	2.1	
Cn1cc(-c2cc(CO)cc(NC(=O)c3cc(C(=O)C4CC4)n4ccc(O)cc34)c2F)cn1	2.1			
COc1ccn2c(C(C)=O)cc(C(=O)Nc3cc(F)cc(-c4cnn(C)c4)c3F)c2c1	6.6	> 50000	69.6	
CNC(=O)c1cc(C(=O)Nc2cc(CO)cc(-c3cnn(C)c3)c2F)c2cc(O)ccn12	2.4			
COc1ccc2c(c1)c(C(=O)Nc1cc(C(=O)O)cc(-c3cnn(C)c3)c1F)cn2C(C)=O			178	hepatic extraction ratio at 0.75 h, 1 µM [4]: 0.774; remaining at 0.75 h, 1 µM [5]: 7.7%; half-life at 1 µM [6]: 13.1 min; CLint scaled at 1 µM [7]: 189 mL/min/kg; CLhep predicted at 1 µM [8]: 42.7 mL/min/kg; Kd [9]: 165 nM
CC(C)C(=O)c1cc(C(=O)Nc2cc(CO)cc(-c3cnn(C)c3)c2F)c2cc(O)ccn12	1.8	37000		
Cn1cc(-c2cc(CO)cc(NC(=O)c3cc(C(=O)C(C)(C)C)n4ccc(O)cc34)c2F)cn1	0.9	33900		
COc1ccn2c(C(C)=O)cc(C(=O)Nc3cc(C=O)cc(-c4cnn(C)c4)c3F)c2c1	5.4	17400	13	
Cc1ncc2n1-c1ccc(Cl)cc1C(c1ccccc1F)=NC2 [MIDAZOLAM]				hepatic extraction ratio at 0.75 h, 1 µM [4]: 0.961; CLint scaled at 1 µM [10]: 452 mL/min/kg; CLint scaled at 1 µM [11]: 19.9 mL/min/kg; remaining at 0.75 h, 1 µM [5]: 4.5%; half-life at 1 µM [6]: 1.85 min; CLint scaled at 1 µM [7]: 750 mL/min/kg; hepatic extraction ratio at 0.75 h, 1 µM [12]: 0.962; half-life at 1 µM [13]: 3.07 min; CLhep predicted at 1 µM [8]: 53 mL/min/kg; remaining at 0.75 h, 1 µM [14]: 0.55%
CC(=O)c1cc(C(=O)Nc2cc(CO)cc(-c3cnn(C4CC4)c3)c2F)c2cc(N)ccn12	10.5	8660	2.96	
CC(=O)c1cc(C(=O)Nc2cc(C(C)O)cc(-c3cnn(C4CC4)c3)c2F)c2cc(OC(=O)N(C)C)ccn12 (configuration not stated)	10	9090	26.2	
COc1ccn2c(C(C)=O)cc(C(=O)Nc3cc(C(N)=O)cc(-c4cnn(C)c4)c3F)c2c1	2.4			
CC(C)NCC(O)COc1ccc(CC(N)=O)cc1 (configuration not stated) [ATENOLOL]				recovery at 2 h, 10 µM [15]: 94.2%; recovery at 2 h, 10 µM [16]: 94.8%
CC(=O)c1cc(C(=O)Nc2cc(C(C)O)cc(-c3cnn(C4CC4)c3)c2F)c2cc(O)ccn12 (configuration not stated)	12	42000	79	

SMILES	ΔTm [1] [°C]	IC50 [2] [nM]	IC50 [3] [nM]	other results
COc1ccn2c(C(C)=O)cc(C(=O)Nc3cc(C(=O)O)cc(-c4cnn(C)c4)c3F)c2c1	11.4		9.8	remaining at 0.75 h, 1 µM [5]: 100%; half-life at 1 µM [6]: > 120 min; Kd [9]: 30 nM
COc1ccn2c(C(C)=O)cc(C(=O)Nc3cc(C(F)(F)F)cc(-c4cnn(C)c4)c3F)c2c1	2.7	> 50000		
C[C@@H]1CC(=O)Nc2cccc(-c3ccc4c(c3)c(-c3cnn(C)c3)nn4C)c2N1	14.3	3350	14	ΔTm [17]: 0 °C; ΔTm [18]: 1 °C; ΔTm [19]: -0.3 °C; ΔTm [20]: 1 °C; ΔTm [21]: -0.2 °C; IC50 [22]: 3130 nM; ΔTm [23]: -0.2 °C; ΔTm [24]: -0.5 °C; ΔTm [25]: 1.3 °C; IC50 [26]: 650 nM; ΔTm [27]: 0 °C; ΔTm [28]: 1.8 °C; ΔTm [29]: -0.2 °C; ΔTm [30]: 7 °C; ΔTm [31]: 5 °C; ΔTm [32]: 15.5 °C; Kd [9]: 68 nM; ΔTm [33]: 1.5 °C
CCc1ccn2c(C(C)=O)cc(C(=O)Nc3cc(CO)cc(-c4cnn(C)c4)c3F)c2c1	6.3	50000	21.8	
O=C(c1ccc(F)cc1)C1CCN(CCn2c(=O)[nH]c3ccccc3c2=O)CC1 [KETANSERIN]				half-life at 1 µM [6]: 15.6 min; CLint scaled at 1 µM [7]: 159 mL/min/kg; CLhep predicted at 1 µM [8]: 41 mL/min/kg
COc1ccn2c(C(C)=O)cc(C(=O)Nc3cc(CO)cc(-c4cnn(C)c4)c3F)c2c1	8.4	9570	12	
CCC(=O)c1cc(C(=O)Nc2cc(CO)cc(-c3cnn(C)c3)c2F)c2cc(O)ccn12	11.1	34900	78.5	
C[C@H]1O[C@@H](O[C@H]2[C@@H](O)C[C@H](O[C@H]3[C@@H](O)C[C@H](O[C@H]4CC[C@@]5(C)[C@H](CC[C@@H]6[C@@H]5C[C@@H](O)[C@]5(C)[C@@H](C7=CC(=O)OC7)CC[C@]65O)C4)O[C@@H]3C)O[C@@H]2C)C[C@H](O)[C@@H]1O [DIGOXIN]				recovery at 2 h, 10 µM [15]: 92.7%; Papp A→B at 2 h, 10 µM [34]: 1.26 ×10⁻⁶ cm/s
CC(C)NCC(O)COc1cccc2ccccc12 (configuration not stated) [PROPRANOLOL]				recovery at 2 h, 10 µM [15]: 90.7%; recovery at 2 h, 10 µM [16]: 85%; Papp A→B at 2 h, 10 µM [34]: 28.3 ×10⁻⁶ cm/s; Papp B→A at 2 h, 10 µM [35]: 18.9 ×10⁻⁶ cm/s
CC(=O)c1cc(C(=O)Nc2cc(CO)cc(-c3cnn(C)c3)c2F)c2cc(OC(=O)C(C)(C)C)ccn12	6	29600	42	
CC(=O)c1cc(C(=O)Nc2cc(CO)cc(-c3cnn(C)c3)c2F)c2cc(CN)ccn12	8.7	13400	55.6	
COc1ccn2c(C(C)=O)cc(C(=O)Nc3cc(Cl)cc(-c4cnn(C)c4)c3F)c2c1	6	9280	55.2	
CC(=O)c1cc(C(=O)Nc2cc(CO)cc(-c3cnn(C)c3)c2F)c2cc(O)ccn12	12.6	34200		Kd [9]: 44 nM
CC(=O)c1cc(C(=O)Nc2cc(CO)cc(-c3cnn(C)c3)c2F)c2cc(OCc3ccccc3)ccn12	3.9	49700		
CC(=O)c1cc(C(=O)Nc2cc(CO)cc(-c3cnn(C4CC4)c3)c2F)c2cc(O)ccn12	14.1	29000	24.8	
